Test results reported in US9126933B2, “Soft PDE4 inhibitors” (Amakem NV, priority 2011, dated 2015).
≈ marks a conversion by molar mass, not a printed value.

Tests used:
recombinant PDE4B1 = biological target: T1, recombinant PDE4B1 (Homo sapiens, UniProt Q07343); test: PDE4 inhibitory activity screening, PDE4B1 (HTRF, cAMP substrate); assay type: biochemical; settings: 40 nM cAMP, 30 minutes, room temperature
T1 construct: host or cells: Sf9 insect cells
Description: (§1) Various concentrations of the test compounds were incubated with recombinant PDE4B1 or PDE4D2 (isolated from Sf9 cells), using 40 nM cAMP as enzyme substrate. Incubation time was set to 30 minutes. The reaction was carried out at room temperature. At the end of the incubation time, residual cAMP concentration was determined, using HTRF as detection method.
(§2) The IC50 values (concentration causing a half-maximal inhibition of control specific activity) and Hill coefficients (nH) were determined by non-linear regression analysis of the inhibition curves generated with mean replicate values using Hill equation curve fitting (Y=D+[(A−D)/(1+(C/C50)nH)], where Y=specific activity, D=minimum specific activity, A=maximum specific activity, C=compound concentration, C50=IC50 and nH=slope factor).

recombinant PDE4D2 = biological target: T2, recombinant PDE4D2 (Homo sapiens, UniProt Q08499); test: PDE4 inhibitory activity screening, PDE4D2 (HTRF, cAMP substrate); assay type: biochemical; settings: 40 nM cAMP, 30 minutes, room temperature
T2 construct: host or cells: Sf9 insect cells
T2 sequence (Q08499 303-809 limits assumed): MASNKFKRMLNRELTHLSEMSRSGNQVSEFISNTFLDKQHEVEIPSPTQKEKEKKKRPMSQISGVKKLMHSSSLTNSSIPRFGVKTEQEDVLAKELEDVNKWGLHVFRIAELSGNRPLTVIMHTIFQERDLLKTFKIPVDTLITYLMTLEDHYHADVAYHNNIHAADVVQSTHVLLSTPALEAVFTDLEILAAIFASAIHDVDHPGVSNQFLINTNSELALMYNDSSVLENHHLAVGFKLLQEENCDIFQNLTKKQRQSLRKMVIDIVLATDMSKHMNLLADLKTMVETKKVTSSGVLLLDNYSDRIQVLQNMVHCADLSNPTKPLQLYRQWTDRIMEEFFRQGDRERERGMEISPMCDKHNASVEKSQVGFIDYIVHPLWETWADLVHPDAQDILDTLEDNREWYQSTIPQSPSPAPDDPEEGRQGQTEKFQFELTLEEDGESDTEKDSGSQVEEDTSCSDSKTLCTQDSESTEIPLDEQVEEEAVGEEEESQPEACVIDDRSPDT
Description: as §1, §2

[1] = Solubility in aqueous solution (PBS pH 7.4); assay type: physicochemical; settings: phosphate buffer saline (PBS), pH 7.4, aqueous buffer, kinetic from dmso stock; PBS pH7.4, 24 h, room temperature, theoretical concentration 200 μM
Description: Using a 10 mM stock solution of each compound in 100% DMSO, dilutions were prepared to a theoretical concentration of 200 μM in both phosphate buffer saline (PBS), pH7.4 and in 100% DMSO (as reference). Solutions (triplicates) were incubated at room temperature for 24 h on a shaker at 100 rpm. The solutions were then centrifugated at 13000 rpm for 30 min and the supernatant was further diluted to 2 μM in methanol. The supernatant was then analyzed by LC-MSMS. The concentration of compound in PBS supernatant was determined by comparing the MS peak area with that of the reference solution in DMSO.

[2] = Stability assay in human plasma; assay type: in vitro ADME; settings: 1 μM compound
Description: Compounds are incubated at a concentration of 1 μM in rat (mice/rabbit/dog/rabbit) or human plasma. Samples are taken at fixed time points and the remnant of compound is determined by LC-MS/MS after protein precipitation. Half life of the compound is expressed in minutes.

[3] = Membrane permeability, Pampa assay; settings: for Papp at 5 h, 10 μM: PAMPA, pH 7.4; for Papp (Pampa; 10^−6 cm/s): 10 μM in 10 mM PBS pH=7.4, 2% DMSO, 5 hours, room temperature
Description: (§3) The capacity of compounds of the invention to cross a lipophilic membrane was evaluated in a Pampa assay, using an assay plate containing structured layers of phospholipids supported on a PVDF filter (Benton Dickinson). […] Each compound was tested in triplicate and was prepared as a 10 μM solution in 10 mM PBS pH=7.4 buffer containing 2% DMSO. Compounds were dosed in the donor chamber of the assay plate and incubated for 5 hours, at room temperature. Additionally, an equilibrium solution plate containing 6 μM of test compound was prepared. Test compound concentration in donor and acceptor chamber and in the equilibrium plate was quantified using HPLC-MS/MS. The subsequently calculated permeability coefficients were reported as Papp.

[4] = Stability towards drug metabolizing enzymes in lung S9; assay type: in vitro ADME; settings: lung S9 (from smokers); human lung S9, 1 μM compound, cofactors NADPH, UDPGA, PAPS, GSH
Description: A 1 μM solution of the compounds is incubated with a reaction mixture containing lung S9 (from smokers) as well as the cofactors NADPH, UDPGA, PAPS and GSH. Samples are collected at 0, 15, 30 and 60 minutes post incubation. Negative control samples incubated with […] and S9 fraction in the absence of cofactors are run in parallel. By using LC-MS/MS analysis, the percent of compounds remaining at each time point, the metabolic half-life of the compounds (expressed in minutes) and the metabolic half-life of the control compounds are determined.

[5] = Stability assay in aqueous humor; assay type: in vitro ADME; settings: rabbit aqueous humor, 1 μM compound
Description: Compounds are incubated at a concentration of 1 μM in human or animal (e.g. rabbit) aqueous humor (AH). Samples are taken at fixed time points and the remnant of compound is determined by LC-MS/MS after protein precipitation.

in vitro = settings: PAMPA, pH 7.4
Description: as §3

T1 sequence (Q07343 whole entry): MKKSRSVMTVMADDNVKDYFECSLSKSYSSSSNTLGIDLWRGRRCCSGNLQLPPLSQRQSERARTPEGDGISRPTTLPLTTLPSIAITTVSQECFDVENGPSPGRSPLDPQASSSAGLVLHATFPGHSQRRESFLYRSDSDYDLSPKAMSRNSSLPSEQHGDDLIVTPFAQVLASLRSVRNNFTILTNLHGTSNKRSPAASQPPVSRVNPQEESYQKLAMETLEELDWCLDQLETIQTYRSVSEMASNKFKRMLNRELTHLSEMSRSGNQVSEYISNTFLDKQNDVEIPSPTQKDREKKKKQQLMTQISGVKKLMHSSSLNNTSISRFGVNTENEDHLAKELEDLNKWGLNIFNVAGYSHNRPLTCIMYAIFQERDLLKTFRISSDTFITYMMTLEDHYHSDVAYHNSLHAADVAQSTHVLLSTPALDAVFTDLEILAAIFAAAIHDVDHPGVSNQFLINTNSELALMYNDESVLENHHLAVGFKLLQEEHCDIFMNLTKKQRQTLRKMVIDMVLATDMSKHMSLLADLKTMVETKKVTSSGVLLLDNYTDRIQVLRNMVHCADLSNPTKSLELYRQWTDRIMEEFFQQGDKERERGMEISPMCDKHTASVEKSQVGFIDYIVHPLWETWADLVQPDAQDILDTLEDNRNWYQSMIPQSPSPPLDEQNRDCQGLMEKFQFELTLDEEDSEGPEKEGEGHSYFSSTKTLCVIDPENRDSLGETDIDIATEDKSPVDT

Structure (SMILES)	IC50 (recombinant PDE4B1) [nM]	IC50 (recombinant PDE4D2) [nM]	solubility at 24 h [1] [µM]	half-life at 1 μM [2] [min]	Papp at 5 h, 10 μM [3] [×10⁻⁶ cm/s]	half-life at 1 μM [4] [min]	Papp (Pampa; 10^−6 cm/s) [3]	half-life at 1 μM [5] [min]	Papp at 5 h, 10 μM (in vitro) [×10⁻⁶ cm/s]
CCCOC(=O)CCCCOc1cc(C(=O)Nc2c(Cl)cncc2Cl)ccc1OC(F)F [Compound 1, propyl 5-[5-{[(3,5-dichloropyridin-4-yl)amino]carbonyl}-2-(difluoromethoxy)phenoxy]pentanoate]	10 to 100	10 to 100	10 to 100 (≈ 4.91 to 49.1 µg/mL)	–	–	–	–	–	–
O=C(CCCCOc1cc(C(=O)Nc2c(Cl)cncc2Cl)ccc1OC(F)F)Oc1ccccc1 [Compound 2, phenyl 5-[5-{[(3,5-dichloropyridin-4-yl)amino]carbonyl}-2-(difluoromethoxy)phenoxy]pentanoate]	10 to 100	10 to 100	10 to 100 (≈ 5.25 to 52.5 µg/mL)	< 15	–	–	–	–	–
O=C(CCCCOc1cc(C(=O)Nc2c(Cl)cncc2Cl)ccc1OC(F)F)Oc1ccccc1F [Compound 3]	10 to 100	100 to 500	< 10	< 15	–	–	–	–	–
O=C(CCCCOc1cc(C(=O)Nc2c(Cl)cncc2Cl)ccc1OC(F)F)OCc1ccccc1 [Compound 4]	10 to 100	100 to 500	< 10	–	–	–	–	–	–
O=C(CCCCOc1cc(C(=O)Nc2c(Cl)cncc2Cl)ccc1OC(F)F)OCCN1CCOCC1 [Compound 5]	< 10	< 10	> 100	15 to 60	–	–	–	–	–
O=C(CCCCOc1cc(C(=O)Nc2c(Cl)cncc2Cl)ccc1OC(F)F)OCC1CCCO1 (centres unmarked) [Compound 6]	< 10	10 to 100	–	15 to 60	–	–	–	–	–
COCCOC(=O)CCCCOc1cc(C(=O)Nc2c(Cl)cncc2Cl)ccc1OC(F)F [Compound 7]	< 10	10 to 100	> 100	15 to 60	9.2	–	–	–	–
O=C(CCCCOc1cc(C(=O)Nc2c(Cl)cncc2Cl)ccc1OC(F)F)OCCN1CCCC1 [Compound 8]	< 10	10 to 100	> 100	< 15	7.5	–	–	–	–
CN(C)CCOC(=O)CCCCOc1cc(C(=O)Nc2c(Cl)cncc2Cl)ccc1OC(F)F [Compound 9]	10 to 100	10 to 100	10 to 100 (≈ 5.2 to 52 µg/mL)	< 15	3	–	–	–	–
O=C(CCCCOc1cc(C(=O)Nc2c(Cl)cncc2Cl)ccc1OC(F)F)NCCSC1CCOC1=O (centres unmarked) [Compound 10]	< 10	< 10	> 100	< 15	3.7	–	–	–	–
O=C(Nc1c(Cl)cncc1Cl)c1ccc(OC(F)F)c(OCCCCNC2CCOC2=O)c1 (centres unmarked) [Compound 11, N-(3,5-dichloropyridin-4-yl)-4-(difluoromethoxy)-3-{4-[(2-oxotetrahydrofuran-3-yl)amino]butoxy}benzamide]	< 10	< 10	10 to 100 (≈ 5.04 to 50.4 µg/mL)	< 15	5	> 60	–	–	–
O=C(Nc1c(Cl)cncc1Cl)c1ccc(OC(F)F)c(OCCCCSC2CCOC2=O)c1 (centres unmarked) [Compound 12, N-(3,5-dichloropyridin-4-yl)-4-(difluoromethoxy)-3-{4-[(2-oxotetrahydrofuran-3-yl)thio]butoxy}benzamide]	< 10	< 10	10 to 100 (≈ 5.21 to 52.1 µg/mL)	< 15	–	> 60	2.5 10^−6 cm/s	–	–
O=C(Nc1c(Cl)cncc1Cl)c1ccc(OC(F)F)c(OCCCSC2CCOC2=O)c1 (centres unmarked) [Compound 13]	< 10	< 10	10 to 100 (≈ 5.07 to 50.7 µg/mL)	< 15	–	–	6.6 10^−6 cm/s	–	–
O=C(Nc1c(Cl)cncc1Cl)c1ccc(OC(F)F)c(OCCCNC2CCOC2=O)c1 (centres unmarked) [Compound 14]	< 10	10 to 100	10 to 100 (≈ 4.9 to 49 µg/mL)	< 15	–	> 60	7.3 10^−6 cm/s	–	–
COC(=O)CNCCCOc1cc(C(=O)Nc2c(Cl)cncc2Cl)ccc1OC(F)F [Compound 15]	10 to 100	10 to 100	> 100	15 to 60	5.6	–	–	60 to 120	–
COC(=O)Cc1cccc(NCCCOc2cc(C(=O)Nc3c(Cl)cncc3Cl)ccc2OC(F)F)c1 [Compound 16]	< 10	10 to 100	< 10	< 15	–	–	–	–	–
COC(=O)c1cccc(SCCCOc2cc(C(=O)Nc3c(Cl)cncc3Cl)ccc2OC(F)F)c1 [Compound 17]	100 to 500	100 to 500	< 10	–	–	–	–	–	–

Structure (SMILES)	IC50 (recombinant PDE4B1) [nM]	IC50 (recombinant PDE4D2) [nM]	solubility at 24 h [1] [µM]	half-life at 1 μM [2] [min]	Papp at 5 h, 10 μM [3] [×10⁻⁶ cm/s]	half-life at 1 μM [4] [min]	Papp (Pampa; 10^−6 cm/s) [3]	half-life at 1 μM [5] [min]	Papp at 5 h, 10 μM (in vitro) [×10⁻⁶ cm/s]
COC(=O)c1ccc(SCCCOc2cc(C(=O)Nc3c(Cl)cncc3Cl)ccc2OC(F)F)cc1 [Compound 18]	100 to 500	100 to 500	–	–	–	–	–	–	–
COC(=O)c1ccc(Oc2cc(C(=O)Nc3c(Cl)cncc3Cl)ccc2OC(F)F)cc1 [Compound 21, Methyl 4-(5-((3,5-dichloropyridin-4-yl)carbamoyl)-2-(difluoromethoxy)phenoxy)benzoate]	10 to 100	> 500	10 to 100 (≈ 4.83 to 48.3 µg/mL)	–	–	–	–	> 120	–
CCOC(=O)c1cccc(Oc2cc(C(=O)Nc3c(Cl)cncc3Cl)ccc2OC(F)F)c1 [Compound 22, Ethyl 3-(5-((3,5-dichloropyridin-4-yl)carbamoyl)-2-(difluoromethoxy)phenoxy)benzoate]	10 to 100	100 to 500	–	–	–	–	–	–	–
O=C(Nc1c(Cl)cncc1Cl)c1ccc(OC(F)F)c(OCCCSc2cccc(C(=O)OCCO)c2)c1 [Compound 23]	10 to 100	10 to 100	–	–	–	–	–	–	–
CN(C)CCOC(=O)c1cccc(SCCCOc2cc(C(=O)Nc3c(Cl)cncc3Cl)ccc2OC(F)F)c1 [Compound 24]	10 to 100	10 to 100	–	< 15	–	–	–	–	–
O=C(Nc1c(Cl)cncc1Cl)c1ccc(OC(F)F)c(OCCCSc2ccc(C(=O)OCCO)cc2)c1 [Compound 25]	10 to 100	10 to 100	–	–	–	–	–	–	–
CN(C)CCOC(=O)c1ccc(SCCCOc2cc(C(=O)Nc3c(Cl)cncc3Cl)ccc2OC(F)F)cc1 [Compound 26]	10 to 100	< 10	–	< 15	–	–	–	–	–
O=C(Nc1c(Cl)cncc1Cl)c1ccc(OC(F)F)c(Oc2ccc(C(=O)OCCO)cc2)c1 [Compound 27]	10 to 100	10 to 100	–	–	2.3	–	–	> 120	–
CN(C)CCOC(=O)c1ccc(Oc2cc(C(=O)Nc3c(Cl)cncc3Cl)ccc2OC(F)F)cc1 [Compound 28]	10 to 100	100 to 500	–	15 to 60	7.9	–	–	60 to 120	–
O=C(Nc1c(Cl)cncc1Cl)c1ccc(OC(F)F)c(Oc2cccc(C(=O)OCCO)c2)c1 [Compound 29]	< 10	10 to 100	–	–	5.1	–	–	–	–
CN(C)CCOC(=O)c1cccc(Oc2cc(C(=O)Nc3c(Cl)cncc3Cl)ccc2OC(F)F)c1 [Compound 30]	< 10	10 to 100	–	< 15	5.3	–	–	–	–
O=C(Nc1c(Cl)cncc1Cl)c1ccc(OC(F)F)c(OCCCCNC(CCO)C(=O)O)c1 (centres unmarked) [Met1]	100 to 500	100 to 500	–	–	0.03	–	–	–	–
O=C(Nc1c(Cl)cncc1Cl)c1ccc(OC(F)F)c(OCCCNC(CCO)C(=O)O)c1 (centres unmarked) [Met2]	> 500	> 500	–	–	0.02	–	–	–	–
O=C(O)CNCCCOc1cc(C(=O)Nc2c(Cl)cncc2Cl)ccc1OC(F)F [Met3, 2-[(3-{5-[(3,5-dichloropyridin-4-yl)carbamoyl]-2-(difluoromethoxy)phenoxy}propyl)amino]acetic acid]	> 500	> 500	–	–	0.02	–	–	–	–
CC(C)NCC(O)COc1cccc2ccccc12 (centres unmarked) [Propranolol]	–	–	–	–	–	–	–	–	9.5
O=C(Nc1c(Cl)cncc1Cl)c1ccc(OC(F)F)c(OCC2CC2)c1 [Roflumilast, reference compound]	–	–	< 10	–	–	–	–	–	–
